The numbers were not newly measured in patent US9855513B2, “Method for producing concentrated aqueous solution of organic compound” (Kao Corporation, priority 2012, dated 2018), which cites them from elsewhere.

For this series the following is noted: in a water of 100 g at 25° C.

Regarding `OCC(O)CO` [glycerol], the solubility degree entry is on record as “∞”.
